The record followed here is patent US20100261710A1, “HDAC Inhibitors” (ARQULE, INC., priority 2007, published 2010).

In data set [1] the target is HDAC5 (Homo sapiens, UniProt Q9UQL6). Description: HDAC isoform assay, HDAC5.
For data set [2], the system named is HCT-116 cells. Description: MTS cell viability assay, HCT-116. The settings on record: Homo sapiens. In kind it is cell-based. As to the method:
(§1) The MTS cell viability assay was used to determine the potency of proliferation inhibitor with. MTS measures mitochondrial dehydrogenase activity and serves as surrogate readout for the number of viable cells.
(§2) For MTS assay, cells were plated in 96-well plates at 2000 cells per well and incubated in the presence of compounds for 72 hr. MTS was added to each well as instructed by manufacture (Promega) and plates were incubated for 4 h at 37° C. The absorbance of each well was measured at 490 nm using a microplate reader.

Data set [3] concerns HDACs (nuclear HeLa extract). Description: pan-HDAC fluorescent biochemical assay with nuclear HeLa extract. The following applies: HDAC peptide substrate, 60 min at 37° C. As to the method: Substrate was synthesized in house. Stocks were prepared in DMSO (10 mM).
Compound working solution: Compounds dissolved in assay buffer at 4× Screening concentration. Activator solution: Trypsin (10 mg/mL) diluted 1:1600 in Assay Buffer containing 4 μM TSA.
Total reaction Volume: 40 μL
Reaction was allowed to run for 60 minutes at 37° C.
2. Combine in a white ½ area well plate: 10 μl of 4× compound (or buffer), 15 μl of substrate and 15 μl of HeLa extract. Mix well
3. Incubate at 37° C. for 60 min.
4. Prepare Activator solution. Dilute Trypsin 1:1600 in Assay Buffer+4μM TSA. 20 μl is needed per assay point.
5. Add 20 μl of prepared activator solution and mix thoroughly.
The hydroxamic-acid based compounds of the present invention were tested in the biochemical assay for their pan-HDAC inhibitory activity.

Data set [4] has as its target T1, HDAC3 (Homo sapiens, UniProt O15379).
T1 construct: purchased BioMol
Description: HDAC isoform assay, HDAC3. It is filed as biochemical. The following applies: substrate KI-177; read-out: HDAC3, IC50, ELISA (KI-177). For orientation: An ELISA detects its analyte on a solid surface through an enzyme-linked reagent.
Description: The assay measures the ability of a small molecule to inhibit deacetylation of the substrate. Activator reagent recognizes the substrate only if the lysine has been deacetylated.
This homogeneous assay in performed in the same well without washing steps. The HDAC source, nuclear HeLa extract, is incubated with substrate in the presence of an inhibitor compound. At the end of the reaction time, activator solution, containing Trypsin and TSA, is added to stop the deacetylation reaction, and cleave the amino-coumarin from the deacetylated substrate. The plate is then read on either a Perkin Elmer Victor or Envision system using Umbilliferone filter set. […] The signal is directly proportional to the activity of HDACs and compound inhibition of HDAC is monitored by a decrease in signal.

Data set [5] concerns the target T2, HDAC2 (Homo sapiens, UniProt Q92769).
T2 construct: purchased BioMol
Description: HDAC isoform assay, HDAC2. In kind it is biochemical. The settings on record: substrate KI-177; read-out: HDAC2, IC50, ELISA (KI-177).

In data set [6] the test system is HH cells. Description: MTS cell viability assay, HH. The settings on record: Homo sapiens, 72 hr, read-out: HH, IG50, MTS. It is filed as cell-based. As to the method: The MTS cell viability assay was used to determine the potency of proliferation inhibitor with. MTS measures mitochondrial dehydrogenase activity and serves as surrogate readout for the number of viable cells. The protocol described below is based upon the “CellTiter 96 Aqueous Non-Radioactive Cell Proliferation Assay” sold by Promega (Technical Bulletin No. 169).
as §2
For orientation: Formazan colour is commonly taken as a measure of viable cells.

Data set [7] concerns MJ cells. Description: MTS cell viability assay, MJ. In kind it is cell-based. The following applies: 72 hr, read-out: MJ, IG50, MTS. As to the method: as §1, §2
In data set [8] the target is T3, HDAC6 (Homo sapiens, UniProt Q9UBN7).
T3 sequence (Q9UBN7 1-1215): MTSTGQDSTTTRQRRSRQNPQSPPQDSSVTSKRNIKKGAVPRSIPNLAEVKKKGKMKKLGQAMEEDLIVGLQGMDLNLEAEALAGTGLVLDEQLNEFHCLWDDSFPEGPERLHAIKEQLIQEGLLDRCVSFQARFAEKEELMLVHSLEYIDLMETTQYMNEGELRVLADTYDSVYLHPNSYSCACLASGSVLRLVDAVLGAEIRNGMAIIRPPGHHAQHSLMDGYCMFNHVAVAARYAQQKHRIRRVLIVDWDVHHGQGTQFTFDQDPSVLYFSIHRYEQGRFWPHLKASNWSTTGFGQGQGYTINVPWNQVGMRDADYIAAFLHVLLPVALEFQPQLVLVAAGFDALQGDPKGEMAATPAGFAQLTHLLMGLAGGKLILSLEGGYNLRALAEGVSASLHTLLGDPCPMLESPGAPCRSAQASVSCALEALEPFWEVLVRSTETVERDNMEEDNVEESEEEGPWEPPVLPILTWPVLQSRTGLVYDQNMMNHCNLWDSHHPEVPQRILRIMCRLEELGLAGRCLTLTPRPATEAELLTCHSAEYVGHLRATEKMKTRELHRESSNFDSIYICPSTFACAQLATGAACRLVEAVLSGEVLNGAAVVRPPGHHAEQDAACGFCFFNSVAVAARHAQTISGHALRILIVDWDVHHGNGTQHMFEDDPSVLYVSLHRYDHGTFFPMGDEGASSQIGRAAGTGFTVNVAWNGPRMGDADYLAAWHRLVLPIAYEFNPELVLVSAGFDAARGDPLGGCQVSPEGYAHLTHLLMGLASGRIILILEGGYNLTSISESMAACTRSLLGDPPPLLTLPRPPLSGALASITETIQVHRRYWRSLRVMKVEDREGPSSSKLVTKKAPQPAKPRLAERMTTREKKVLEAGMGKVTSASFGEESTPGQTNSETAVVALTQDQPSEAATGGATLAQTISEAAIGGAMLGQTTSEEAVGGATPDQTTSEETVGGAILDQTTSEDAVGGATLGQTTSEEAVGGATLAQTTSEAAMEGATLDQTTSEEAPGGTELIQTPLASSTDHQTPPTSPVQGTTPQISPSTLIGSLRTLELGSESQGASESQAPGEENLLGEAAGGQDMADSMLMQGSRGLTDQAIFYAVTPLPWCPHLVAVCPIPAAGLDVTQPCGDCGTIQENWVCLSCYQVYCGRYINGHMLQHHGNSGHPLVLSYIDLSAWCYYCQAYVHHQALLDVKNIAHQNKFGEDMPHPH
Description: HDAC isoform assay, HDAC6.

Data set [9] concerns the target T4, HDAC4 (Homo sapiens, UniProt P56524).
T4 construct: purchased BioMol
Description: HDAC isoform assay, HDAC4. In kind it is biochemical. The settings on record: substrate KI-177; read-out: HDAC4, IC50, ELISA (KI-177).

Data set [10] deals with T5, HDAC1 (Homo sapiens, UniProt Q13547).
T5 construct: cell extract containing HDAC (HeLa in these experiments); endogenous in cells; host or cells: HeLa cell extract
Description: HDAC-1 immunocapture fluorescent biochemical assay (HeLa lysate). The settings on record: HDAC1 immunocaptured from HeLa extract. As to the method: The HDAC-1 assay represents a novel immunocapture assay procedure. […] The HDAC1 is captured on a protein A coated plate using HDAC1 specific antibody, and is then allowed to react with the substrate.
This assay in performed in four general steps. In the first step (FIG. 1A), cell extract containing HDAC (HeLa in these experiments) is incubated with (cell signaling) rabbit polyclonal HDAC1 antibody (rabbit IgG antibody is used for background control) to allow binding of the enzyme to the antibody. In the second step, the complexed mixture is added to the protein A covered plate which captures the antibody. In the third step, after washing away unbound proteins, substrate and inhibitor are added and deacetylation is allowed to occur. […] The plate is then read on either Victor or Perkin Elmer Envision system using Umbilliferone filter set.
• A. HeLa extract complexed with HDAC1 antibody working solution (in DPBS):
Compound working solution (in HDAC buffer):
Compounds diluted in assay buffer at 2× Screening concentration. • D. Activator solution:
Trypsin (10 mg/mL) diluted 1:1600 in assay buffer containing 4 μM TSA.
Complexing of extract with antibody was carried out at room temperature for 60 min with rocking. Binding of complexes onto protein A plate was carried out at room temperature for 60 min in 50 μL. Reaction was carried out in […], in the protein A plate for 60 minutes at 37° C. 40 μL of the reaction was moved into white ½ area plate for activation and reading.
• 1. Set PIERCE Protein A plate to block with 150 μof 5% BSA in TB ST for 60 min at room temperature. • 2. […] Dilute complexes further ([…]) by addition of 3.5 mL of PBS (final total volume of 5 mL). • 4. Wash blocked protein A plate prior to complex addition with TBST. • 5. Add 50 μl of diluted complexes to Protein A plate and incubate for 60 min at room temperature. • 6. Wash plate with TB ST. • 7. Add 25 μl of diluted compounds (in HDAC buffer) to each well and incubate for 10 min at room temperature. • 8. […] Move 40 μl of reaction to a white plate and add 20 μl of activator/developer solution, mix thoroughly. • 10. Read plate.

Data set [11] concerns the target T6, HDAC8 (Homo sapiens, UniProt Q9BY41).
T6 sequence (Q9BY41 1-377): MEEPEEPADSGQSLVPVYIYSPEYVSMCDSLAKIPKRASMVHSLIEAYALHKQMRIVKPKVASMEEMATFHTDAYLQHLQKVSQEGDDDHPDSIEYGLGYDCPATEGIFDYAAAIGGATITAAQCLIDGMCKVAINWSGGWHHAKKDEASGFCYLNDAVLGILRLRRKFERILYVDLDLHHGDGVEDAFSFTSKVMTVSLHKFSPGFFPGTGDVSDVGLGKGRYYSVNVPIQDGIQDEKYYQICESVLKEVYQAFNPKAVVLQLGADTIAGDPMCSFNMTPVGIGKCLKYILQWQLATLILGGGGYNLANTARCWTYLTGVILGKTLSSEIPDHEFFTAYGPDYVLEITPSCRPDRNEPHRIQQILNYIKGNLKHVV
Description: HDAC isoform assay, HDAC8.

Data set [12] deals with Hut78 cells. Description: MTS cell viability assay, Hut78. It is filed as cell-based. The following applies: Homo sapiens; Hut78, 72 hr; read-out: Hut78, IG50, MTS. As to the method:
as §1, §2

Data set [13] addresses T7, HDAC9 (Homo sapiens, UniProt Q9UKV0).
T7 construct: purchased BioMol
Description: HDAC isoform assay, HDAC9. It is filed as biochemical.

The structures appear in SMILES notation. pIC50: −log10 of the molar value. Read-outs that look alike come from different tables or passages of the source.

T1 sequence (O15379 whole entry): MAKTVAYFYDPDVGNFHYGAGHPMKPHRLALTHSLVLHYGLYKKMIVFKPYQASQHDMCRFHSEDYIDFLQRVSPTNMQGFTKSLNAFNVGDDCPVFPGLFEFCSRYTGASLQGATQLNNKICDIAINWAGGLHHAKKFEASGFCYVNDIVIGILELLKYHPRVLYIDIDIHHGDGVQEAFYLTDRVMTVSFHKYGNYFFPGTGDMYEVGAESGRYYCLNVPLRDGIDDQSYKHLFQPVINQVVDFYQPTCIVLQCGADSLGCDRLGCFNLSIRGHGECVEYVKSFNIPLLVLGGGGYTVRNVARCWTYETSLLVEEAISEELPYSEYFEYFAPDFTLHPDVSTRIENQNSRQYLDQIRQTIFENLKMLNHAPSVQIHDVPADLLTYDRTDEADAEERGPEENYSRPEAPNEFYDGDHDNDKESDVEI
T1 sequence (O75376 395-489 partner limits assumed): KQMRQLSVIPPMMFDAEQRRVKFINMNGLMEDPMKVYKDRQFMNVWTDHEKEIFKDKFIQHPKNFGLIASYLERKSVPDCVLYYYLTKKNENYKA
T4 sequence (P56524 whole entry): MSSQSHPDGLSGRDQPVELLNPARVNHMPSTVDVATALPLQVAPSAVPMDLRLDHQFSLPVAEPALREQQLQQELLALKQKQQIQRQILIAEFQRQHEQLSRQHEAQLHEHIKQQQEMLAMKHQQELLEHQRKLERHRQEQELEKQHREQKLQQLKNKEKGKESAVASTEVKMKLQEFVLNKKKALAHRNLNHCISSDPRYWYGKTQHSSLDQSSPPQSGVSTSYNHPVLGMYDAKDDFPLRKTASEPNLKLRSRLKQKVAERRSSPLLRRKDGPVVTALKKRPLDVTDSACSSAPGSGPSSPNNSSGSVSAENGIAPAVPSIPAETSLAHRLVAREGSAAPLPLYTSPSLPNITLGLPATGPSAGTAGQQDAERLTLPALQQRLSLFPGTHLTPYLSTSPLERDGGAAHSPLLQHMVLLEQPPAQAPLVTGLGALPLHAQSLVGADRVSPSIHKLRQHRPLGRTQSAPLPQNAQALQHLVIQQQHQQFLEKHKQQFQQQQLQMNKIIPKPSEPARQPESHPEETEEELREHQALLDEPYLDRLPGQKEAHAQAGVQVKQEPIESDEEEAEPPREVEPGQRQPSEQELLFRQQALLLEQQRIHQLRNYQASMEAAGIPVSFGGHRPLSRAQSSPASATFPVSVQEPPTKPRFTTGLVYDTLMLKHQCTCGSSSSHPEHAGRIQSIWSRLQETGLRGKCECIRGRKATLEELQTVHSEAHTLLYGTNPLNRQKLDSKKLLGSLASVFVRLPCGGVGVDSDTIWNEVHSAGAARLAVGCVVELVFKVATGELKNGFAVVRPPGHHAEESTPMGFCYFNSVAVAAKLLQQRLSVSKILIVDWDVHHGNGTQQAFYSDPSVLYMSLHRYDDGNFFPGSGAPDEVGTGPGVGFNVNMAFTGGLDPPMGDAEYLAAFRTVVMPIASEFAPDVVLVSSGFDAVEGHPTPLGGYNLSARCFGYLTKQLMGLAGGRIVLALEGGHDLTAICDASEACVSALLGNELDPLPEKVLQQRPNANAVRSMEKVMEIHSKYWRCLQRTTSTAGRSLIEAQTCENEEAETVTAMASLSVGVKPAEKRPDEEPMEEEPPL
T5 sequence (Q13547 whole entry): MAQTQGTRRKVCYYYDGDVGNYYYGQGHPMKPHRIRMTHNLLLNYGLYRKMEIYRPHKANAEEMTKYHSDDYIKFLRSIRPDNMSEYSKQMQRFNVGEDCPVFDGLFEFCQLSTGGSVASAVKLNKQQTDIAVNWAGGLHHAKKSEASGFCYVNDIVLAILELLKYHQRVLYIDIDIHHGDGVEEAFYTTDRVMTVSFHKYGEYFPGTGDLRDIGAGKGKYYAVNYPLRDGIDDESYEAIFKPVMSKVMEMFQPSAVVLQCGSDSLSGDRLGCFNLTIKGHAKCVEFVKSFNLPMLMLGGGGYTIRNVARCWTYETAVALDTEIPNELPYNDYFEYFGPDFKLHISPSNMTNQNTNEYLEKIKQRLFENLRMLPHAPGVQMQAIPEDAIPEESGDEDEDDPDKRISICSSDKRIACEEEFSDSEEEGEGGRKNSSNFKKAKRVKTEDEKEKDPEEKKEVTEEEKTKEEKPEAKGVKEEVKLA
T2 sequence (Q92769 whole entry): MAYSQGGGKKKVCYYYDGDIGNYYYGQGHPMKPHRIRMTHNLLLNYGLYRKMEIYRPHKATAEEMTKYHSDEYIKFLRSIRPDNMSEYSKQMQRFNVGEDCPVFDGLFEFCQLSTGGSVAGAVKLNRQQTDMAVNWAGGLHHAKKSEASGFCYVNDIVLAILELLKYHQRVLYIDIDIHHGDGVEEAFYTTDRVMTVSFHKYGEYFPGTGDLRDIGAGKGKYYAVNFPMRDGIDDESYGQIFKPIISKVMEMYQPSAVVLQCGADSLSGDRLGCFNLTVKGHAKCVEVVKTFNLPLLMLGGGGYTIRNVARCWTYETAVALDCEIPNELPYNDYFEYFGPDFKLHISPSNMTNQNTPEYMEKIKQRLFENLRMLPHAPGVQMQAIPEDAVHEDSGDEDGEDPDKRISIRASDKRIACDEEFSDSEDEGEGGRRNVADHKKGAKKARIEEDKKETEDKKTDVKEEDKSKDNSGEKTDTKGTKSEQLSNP
HDAC5, sequence (Q9UQL6 whole entry, canonical isoform): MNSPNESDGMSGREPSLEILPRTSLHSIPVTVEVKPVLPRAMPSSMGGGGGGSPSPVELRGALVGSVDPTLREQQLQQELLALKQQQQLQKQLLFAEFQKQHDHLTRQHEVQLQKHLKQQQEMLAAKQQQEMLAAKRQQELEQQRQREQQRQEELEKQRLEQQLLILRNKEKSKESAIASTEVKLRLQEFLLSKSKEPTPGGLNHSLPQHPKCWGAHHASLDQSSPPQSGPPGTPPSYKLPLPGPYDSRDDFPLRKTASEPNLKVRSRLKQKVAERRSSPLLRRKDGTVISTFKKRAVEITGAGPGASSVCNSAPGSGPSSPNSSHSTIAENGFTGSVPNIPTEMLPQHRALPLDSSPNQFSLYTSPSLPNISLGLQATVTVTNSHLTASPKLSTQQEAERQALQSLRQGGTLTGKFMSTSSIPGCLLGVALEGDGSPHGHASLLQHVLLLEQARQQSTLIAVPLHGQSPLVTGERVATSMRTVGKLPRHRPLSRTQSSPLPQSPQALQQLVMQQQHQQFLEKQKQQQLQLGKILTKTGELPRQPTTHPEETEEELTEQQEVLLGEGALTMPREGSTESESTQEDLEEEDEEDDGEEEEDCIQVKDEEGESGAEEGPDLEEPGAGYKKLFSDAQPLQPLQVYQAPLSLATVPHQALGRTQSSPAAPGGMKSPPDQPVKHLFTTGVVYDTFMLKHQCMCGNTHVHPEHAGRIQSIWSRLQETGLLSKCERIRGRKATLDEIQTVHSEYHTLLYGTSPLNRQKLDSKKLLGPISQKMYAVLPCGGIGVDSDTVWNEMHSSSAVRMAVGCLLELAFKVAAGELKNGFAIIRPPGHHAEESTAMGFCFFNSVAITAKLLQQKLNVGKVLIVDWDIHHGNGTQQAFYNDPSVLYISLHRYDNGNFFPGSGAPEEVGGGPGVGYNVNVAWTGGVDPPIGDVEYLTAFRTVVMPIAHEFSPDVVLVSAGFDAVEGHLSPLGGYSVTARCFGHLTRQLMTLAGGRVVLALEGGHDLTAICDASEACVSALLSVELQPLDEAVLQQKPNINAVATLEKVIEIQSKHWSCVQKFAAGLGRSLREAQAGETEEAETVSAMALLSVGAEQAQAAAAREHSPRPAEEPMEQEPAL
T7 sequence (Q9UKV0 whole entry): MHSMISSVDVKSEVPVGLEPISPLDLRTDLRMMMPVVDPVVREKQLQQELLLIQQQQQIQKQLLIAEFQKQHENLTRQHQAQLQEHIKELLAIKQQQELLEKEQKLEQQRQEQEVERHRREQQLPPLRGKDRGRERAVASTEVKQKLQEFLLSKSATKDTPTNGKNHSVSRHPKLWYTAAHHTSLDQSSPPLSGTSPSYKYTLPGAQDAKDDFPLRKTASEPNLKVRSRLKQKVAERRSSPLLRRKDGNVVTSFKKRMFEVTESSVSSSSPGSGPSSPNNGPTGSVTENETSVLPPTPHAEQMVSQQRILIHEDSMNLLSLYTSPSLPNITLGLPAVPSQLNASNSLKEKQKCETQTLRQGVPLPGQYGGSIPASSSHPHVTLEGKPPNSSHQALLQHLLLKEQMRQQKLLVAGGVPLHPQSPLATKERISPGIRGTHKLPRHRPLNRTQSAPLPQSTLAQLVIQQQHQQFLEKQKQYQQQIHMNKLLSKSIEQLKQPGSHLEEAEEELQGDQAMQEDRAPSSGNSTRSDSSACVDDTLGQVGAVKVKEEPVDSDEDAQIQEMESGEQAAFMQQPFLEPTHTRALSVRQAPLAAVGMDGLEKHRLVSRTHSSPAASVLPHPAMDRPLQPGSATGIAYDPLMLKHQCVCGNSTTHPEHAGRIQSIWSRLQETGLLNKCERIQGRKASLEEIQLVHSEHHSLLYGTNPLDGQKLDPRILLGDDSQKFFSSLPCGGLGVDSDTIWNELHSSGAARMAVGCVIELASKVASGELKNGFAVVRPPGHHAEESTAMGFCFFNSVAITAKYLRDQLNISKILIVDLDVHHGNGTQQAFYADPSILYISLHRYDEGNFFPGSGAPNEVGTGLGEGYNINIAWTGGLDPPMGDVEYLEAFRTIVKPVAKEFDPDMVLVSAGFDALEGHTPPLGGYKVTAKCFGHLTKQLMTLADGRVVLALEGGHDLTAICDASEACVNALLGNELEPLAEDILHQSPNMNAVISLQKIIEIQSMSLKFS

For `O=C(NO)c1ccc(CNC(=O)c2cn3c4c(cccc24)CCC3)cc1` [compound 6, N-{4-[(hydroxyamino)carbonyl]benzyl}-5,6-dihydro-4H-pyrrolo[3,2,1-ij]quinoline-1-carboxamide], the melting point (in general, the temperature, or range, at which the solid turns liquid) fell in the range of 191 to 192 °C. For the same molecule, in data set [1], the pIC50 is 7.43. Also, the IC50 in data set [2] (HCT-116, 72 h, read-out: HCT-116, IG50, MTS (uM)) worked out at 0.457 µM. The molecule also had a pIC50 in data set [3] of 7.15. Besides, in data set [4], the pIC50 is 7.58. Moreover, the pIC50 in data set [5] was 5.52. The pIC50 in [6] was 7.04. Also, in data set [7], the pIC50 was 6.24. In [8], this molecule gave a pIC50 of 8.11.
`CC(C)(C)OC(=O)N1CCn2cc(C(=O)NCc3ccc(C(=O)NO)cc3)c3cccc(c32)C1` [compound 15, tert-butyl 7-{[4-(hydroxycarbamoyl)benzyl]carbamoyl}-3,4-dihydro[1,4]diazepino[6,7,1-hi]indole-2(1H)-carboxylate]: the pIC50 is 6.30 in data set [3]; 6.29 in data set [4]; 5.00 in [5]; 6.10 in [9]; 6.31 in [10]; 6.69 in data set [8]. Moreover, the pIC50 in data set [11] was 5.46.
Molecule `O=C(CCC1CCN(C(=O)c2cn3c4c(cccc24)CCC3)CC1)NO` [compound 18, 3-[1-(5,6-dihydro-4H-pyrrolo[3,2,1-ij]quinolin-1-ylcarbonyl)piperidin-4-yl]-N-hydroxypropanamide] came in with a melting point of 110 to 113 °C. Besides, the pIC50 in data set [1] is 7.04. The pIC50 in data set [2] (HCT-116, 72 hr, read-out: HCT-116, IG50, MTS) was 5.94. Moreover, the pIC50 in [12] is 6.01. Also, the pIC50 in [4] was 7.53. In addition, in data set [5], the pIC50 was 5.00. This molecule also had a pIC50 in data set [13] of 6.27. Besides, the pIC50 in data set [6] is 6.73. Further, the pIC50 in data set [9] was 7.16. Further, the pIC50 in data set [10] was 7.45. Besides, the pIC50 in data set [7] was 6.41. Besides, in [8], the pIC50 is 6.84. This molecule also had a pIC50 in data set [11] of 5.30.
`O=C(CCCCCCNC(=O)c1cc2cccc3c2n1CCC3)NO` [compound 23, N-[7-(hydroxyamino)-7-oxoheptyl]-5,6-dihydro-4H-pyrrolo[3,2,1-ij]quinoline-2-carboxamide] came in with a melting point of 160 to 161 °C. The pIC50 in data set [4] was 7.43. Besides, the pIC50 in [5] was 5.52. Besides, the pIC50 in data set [9] was 7.55. The molecule further showed a pIC50 in data set [10] of 7.77. For the same molecule, the pIC50 in data set [8] was 7.37.
